The values that follow come from ChEMBL document CHEMBL4340506, “Inhibition of a viral prolyl hydroxylase” (Bioorg Med Chem, 2019).

Activity calls are given as the source filed them. The rule behind the calls is not given here. Where a SMILES comes first, the peptide text is derived from it. [ ]: non-standard residue; d: D form. Pro(cis-4-F) = O=C(O)[C@@H]1C[C@H](F)CN1; Hyp = O=C(O)[C@@H]1C[C@@H](O)CN1

Assay [1] addresses T1, Prolyl 4-hydroxylase (Paramecium bursaria Chlorella virus 1, UniProt Q84406).
T1 sequence (Q84406 whole entry): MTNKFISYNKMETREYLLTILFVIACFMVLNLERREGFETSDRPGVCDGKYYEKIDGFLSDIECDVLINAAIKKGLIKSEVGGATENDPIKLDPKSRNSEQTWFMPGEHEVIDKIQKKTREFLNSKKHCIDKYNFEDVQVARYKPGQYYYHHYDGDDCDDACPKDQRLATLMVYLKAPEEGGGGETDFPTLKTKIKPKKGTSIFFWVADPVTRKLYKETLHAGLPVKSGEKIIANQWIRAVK
The experiment in a line: Inhibition of N-terminal His6-tagged recombinant Paramecium bursaria chlorella virus 1 CPH expressed in Escherichia coli Rosetta 2 (DE3) cells pre-incubated for 5 mins before 2OG as substrate and Fe2 as co-factor addition in presence of L-ascorbate and measured after 5 mins MALDI TOF MS analysis.

Assay [2] deals with T2, Prolyl 3-hydroxylase OGFOD1 (Homo sapiens, UniProt Q8N543).
T2 sequence (Q8N543 whole entry): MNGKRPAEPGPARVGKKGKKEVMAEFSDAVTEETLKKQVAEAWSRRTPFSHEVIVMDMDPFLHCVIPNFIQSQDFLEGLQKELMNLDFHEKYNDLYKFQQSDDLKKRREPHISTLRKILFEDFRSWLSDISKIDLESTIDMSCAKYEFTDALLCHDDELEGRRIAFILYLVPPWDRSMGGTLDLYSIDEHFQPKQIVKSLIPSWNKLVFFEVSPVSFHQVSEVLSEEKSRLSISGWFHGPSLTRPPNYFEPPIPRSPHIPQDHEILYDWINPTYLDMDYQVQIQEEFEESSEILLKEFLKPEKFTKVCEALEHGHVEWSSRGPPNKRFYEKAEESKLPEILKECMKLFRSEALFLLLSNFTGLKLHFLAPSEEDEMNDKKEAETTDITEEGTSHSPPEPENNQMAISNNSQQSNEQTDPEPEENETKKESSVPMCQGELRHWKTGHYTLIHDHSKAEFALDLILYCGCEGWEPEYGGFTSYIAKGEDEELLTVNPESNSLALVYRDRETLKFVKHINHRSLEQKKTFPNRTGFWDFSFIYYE
The experiment in a line: Inhibition of recombinant human OGFOD1 using 2OG as substrate and Fe2 as co-factor assessed as hydroxylation incubated for 15 mins in presence of L-ascorbate by MALDI-TOF MS analysis.

Assay [3] concerns the target T3, Prolyl 4-hydroxylase (Paramecium bursaria Chlorella virus 1) (UniProt Q84406).
T3 sequence (whole entry): T1 sequence (Q84406 whole entry)
The experiment in a line: Substrate activity at N-terminal His6-tagged recombinant Paramecium bursaria chlorella virus 1 CPH expressed in Escherichia coli Rosetta 2 (DE3) cells assessed as succinate production at 500 uM incubated for 60 s in presence of 2OG and L-ascorbate and using Fe2 as cofactor by 1H NMR spectroscopy.

The target of assay [4] is T3, Prolyl 4-hydroxylase (Paramecium bursaria Chlorella virus 1). Briefly: Substrate activity at N-terminal His6-tagged recombinant Paramecium bursaria chlorella virus 1 CPH expressed in Escherichia coli Rosetta 2 (DE3) cells assessed as succinate production at 500 uM incubated for 60 s in presence of 2OG and in absence of L-ascorbate and using Fe2 as cofactor by 1H NMR spectroscopy.

The target is the same in assay [5]. Briefly: Substrate activity at N-terminal His6-tagged recombinant Paramecium bursaria chlorella virus 1 CPH expressed in Escherichia coli Rosetta 2 (DE3) cells assessed as substrate hydroxylation at 100 uM incubated for 16 hrs in presence of 2OG by MALDI TOF MS analysis.
Assay [6] has the same target. Briefly: Substrate activity at N-terminal His6-tagged recombinant Paramecium bursaria chlorella virus 1 CPH expressed in Escherichia coli Rosetta 2 (DE3) cells assessed as substrate hydroxylation up to 1 mM incubated for 16 hrs in presence of 2OG by MALDI TOF MS analysis.
In assay [7] the target is Hypoxia-inducible factor 1-alpha inhibitor (Homo sapiens, UniProt Q9NWT6). Briefly: Inhibition of recombinant human FIH using 2OG as substrate and Fe2 as co-factor assessed as hydroxylation incubated for 15 mins in presence of L-ascorbate by LC-MS analysis.
Assay [8] has as its target T3, Prolyl 4-hydroxylase (Paramecium bursaria Chlorella virus 1). The experiment in a line: Substrate activity at N-terminal His6-tagged recombinant Paramecium bursaria chlorella virus 1 CPH expressed in Escherichia coli Rosetta 2 (DE3) cells assessed as substrate hydroxylation incubated for 16 hrs in presence of 2OG and in absence of L-ascorbate by MALDI TOF MS analysis.

The target is the same in assay [9]. Briefly: Substrate activity at N-terminal His6-tagged recombinant Paramecium bursaria chlorella virus 1 CPH expressed in Escherichia coli Rosetta 2 (DE3) cells assessed as succinate production at 500 uM incubated for 60 s in presence of 2OG and using Fe2 as cofactor by 1H NMR spectroscopy.

Sequence of Hypoxia-inducible factor 1-alpha inhibitor (Q9NWT6 whole entry): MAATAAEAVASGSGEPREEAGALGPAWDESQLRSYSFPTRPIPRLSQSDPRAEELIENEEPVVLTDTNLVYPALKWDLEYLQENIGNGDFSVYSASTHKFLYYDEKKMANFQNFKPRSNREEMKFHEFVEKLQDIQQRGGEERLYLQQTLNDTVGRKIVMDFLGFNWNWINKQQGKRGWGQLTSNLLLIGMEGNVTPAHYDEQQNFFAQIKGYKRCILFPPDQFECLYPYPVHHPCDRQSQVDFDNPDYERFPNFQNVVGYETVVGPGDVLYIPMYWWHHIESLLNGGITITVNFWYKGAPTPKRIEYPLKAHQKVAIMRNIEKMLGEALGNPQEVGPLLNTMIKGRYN

The term IC50 denotes the point on the concentration scale where inhibition reaches its midpoint. As to `CC(C)(C)OC(=O)c1ccc(-n2[nH]cc(-n3ccnn3)c2=O)nc1`, the concentration for half-maximal inhibition (IC50) in assay [1] amounted to 2.5 µM; in assay [2], 5.1 µM. Usually Ki stands for the dissociation constant of the complex between target and ligand, obtained from inhibition or displacement. On to `O=C(O)CNC(=O)c1c(O)n(C2CCCCC2)c(=O)n(C2CCCCC2)c1=O`, for which, in assay [1], the IC50 amounted to 13.4 µM and the Ki amounted to 7.65 µM. In addition, the IC50 in [2] was determined as 2.1 µM. In the case of `C[C@H](NC(=O)[C@@H]1CCCN1)C(=O)N1CCC[C@H]1C(=O)N[C@@H](CCCCN)C(=O)N1C[C@H](O)C[C@H]1C(=O)N[C@@H](C)C(=O)N1CCC[C@H]1C(=O)N[C@@H](CCCCN)C(=O)O` (H-PAPK[Hyp]APK-OH), the result in assay [3] and in assay [4] was Active. As for `CC[C@H](C)[C@H](NC(=O)[C@H](CCCCN)NC(=O)[C@@H]1C[C@@H](O)CN1C(=O)[C@H](C)NC(=O)[C@@H]1CCCN1)C(=O)N[C@@H](C)C(=O)N1CCC[C@H]1C(=O)N[C@@H](CCCCN)C(=O)O` (H-PA[Hyp]KIAPK-OH), the result in [5] was inactive.

Turning to `C[C@H](NC(=O)[C@H](CCCCN)NC(=O)[C@H](CCCCN)NC(=O)[C@@H]1C[C@@H](O)CN1C(=O)[C@H](C)NC(=O)[C@@H]1CCCN1)C(=O)N1CCC[C@H]1C(=O)N[C@@H](CCCCN)C(=O)O` (H-PA[Hyp]KKAPK-OH), the outcome in assay [5] was inactive. As to `CC(C)C[C@H](NC(=O)[C@H](CCCCN)NC(=O)[C@@H]1C[C@@H](O)CN1C(=O)[C@H](C)NC(=O)[C@@H]1CCCN1)C(=O)N[C@@H](C)C(=O)N1CCC[C@H]1C(=O)N[C@@H](CCCCN)C(=O)O` (H-PA[Hyp]KLAPK-OH), the outcome in assay [5] was inactive.

For the compound `CSCC[C@H](NC(=O)[C@H](CCCCN)NC(=O)[C@@H]1C[C@@H](O)CN1C(=O)[C@H](C)NC(=O)[C@@H]1CCCN1)C(=O)N[C@@H](C)C(=O)N1CCC[C@H]1C(=O)N[C@@H](CCCCN)C(=O)O` (H-PA[Hyp]KMAPK-OH), the outcome in assay [5] was inactive. The same measure, in the same setting: next, `C[C@H](NC(=O)[C@H](CC(N)=O)NC(=O)[C@H](CCCCN)NC(=O)[C@@H]1C[C@@H](O)CN1C(=O)[C@H](C)NC(=O)[C@@H]1CCCN1)C(=O)N1CCC[C@H]1C(=O)N[C@@H](CCCCN)C(=O)O` (H-PA[Hyp]KNAPK-OH): “inactive”.

For the compound `C[C@H](NC(=O)[C@@H]1CCCN1)C(=O)N1C[C@H](O)C[C@H]1C(=O)N[C@@H](CCCCN)C(=O)N1CCC[C@H]1C(=O)N[C@@H](C)C(=O)N1CCC[C@H]1C(=O)N[C@@H](CCCCN)C(=O)O` (H-PA[Hyp]KPAPK-OH), the result in assay [3] was Active. For the same compound, the outcome in assay [4], in assay [5] and in assay [6] was inactive. With `C[C@H](NC(=O)[C@H](CCC(N)=O)NC(=O)[C@H](CCCCN)NC(=O)[C@@H]1C[C@@H](O)CN1C(=O)[C@H](C)NC(=O)[C@@H]1CCCN1)C(=O)N1CCC[C@H]1C(=O)N[C@@H](CCCCN)C(=O)O` (H-PA[Hyp]KQAPK-OH), the outcome in [5] was inactive. In the case of `C[C@H](NC(=O)[C@H](CCCNC(=N)N)NC(=O)[C@H](CCCCN)NC(=O)[C@@H]1C[C@@H](O)CN1C(=O)[C@H](C)NC(=O)[C@@H]1CCCN1)C(=O)N1CCC[C@H]1C(=O)N[C@@H](CCCCN)C(=O)O` (H-PA[Hyp]KRAPK-OH), in [5], the result was inactive.

With `C[C@H](NC(=O)[C@H](CO)NC(=O)[C@H](CCCCN)NC(=O)[C@@H]1C[C@@H](O)CN1C(=O)[C@H](C)NC(=O)[C@@H]1CCCN1)C(=O)N1CCC[C@H]1C(=O)N[C@@H](CCCCN)C(=O)O` (H-PA[Hyp]KSAPK-OH), in assay [5], the result was inactive. As to `C[C@H](NC(=O)[C@@H]1CCCN1)C(=O)N1C[C@H](O)C[C@H]1C(=O)N[C@@H](CCCCN)C(=O)N[C@H](C(=O)N[C@@H](C)C(=O)N1CCC[C@H]1C(=O)N[C@@H](CCCCN)C(=O)O)[C@@H](C)O` (H-PA[Hyp]KTAPK-OH), the result in [5] was inactive. Turning to `CC(C)[C@H](NC(=O)[C@H](CCCCN)NC(=O)[C@@H]1C[C@@H](O)CN1C(=O)[C@H](C)NC(=O)[C@@H]1CCCN1)C(=O)N[C@@H](C)C(=O)N1CCC[C@H]1C(=O)N[C@@H](CCCCN)C(=O)O` (H-PA[Hyp]KVAPK-OH), the outcome in assay [5] was inactive.

`C[C@H](NC(=O)[C@H](Cc1c[nH]c2ccccc12)NC(=O)[C@H](CCCCN)NC(=O)[C@@H]1C[C@@H](O)CN1C(=O)[C@H](C)NC(=O)[C@@H]1CCCN1)C(=O)N1CCC[C@H]1C(=O)N[C@@H](CCCCN)C(=O)O` (H-PA[Hyp]KWAPK-OH): the outcome in assay [5] was inactive. Still for that read-out and setting: with `C[C@H](NC(=O)[C@H](Cc1ccc(O)cc1)NC(=O)[C@H](CCCCN)NC(=O)[C@@H]1C[C@@H](O)CN1C(=O)[C@H](C)NC(=O)[C@@H]1CCCN1)C(=O)N1CCC[C@H]1C(=O)N[C@@H](CCCCN)C(=O)O` (H-PA[Hyp]KYAPK-OH) the entry was “inactive”; with `C[C@H](NC(=O)[C@@H]1CCCN1)C(=O)N1C[C@H](O)C[C@H]1C(=O)N[C@@H](CCCCN)C(=O)N1C[C@@H](F)C[C@H]1C(=O)N[C@@H](C)C(=O)N1CCC[C@H]1C(=O)N[C@@H](CCCCN)C(=O)O` (H-PA[Hyp]K[Pro(cis-4-F)]APK-OH), “Active”. Consider `O=c1c(-n2ccnn2)c[nH]n1-c1cc(N2CCOCC2)ncn1` [MOLIDUSTAT], for which the results for the 50% inhibitory concentration (IC50) in [1], in assay [7] and in assay [2] were 26.8 µM, 31 µM and under 1 µM, respectively. Moreover, the Ki in [1] was 16.1 µM. Turning to `Cc1nc(C(=O)NCC(=O)O)c(O)c2ccc(Oc3ccccc3)cc12` [ROXADUSTAT], the IC50 in assay [1] was 5 µM; in [7] it was over 100 µM; in assay [2] it was under 1 µM. Further, in [1], the Ki stood at 1.07 µM. As for H-PAPKPAPK-OH, the result in assay [8] was inactive. The result in assay [9] was Active.
